pIC50: −log10 of the molar value.
How the values were obtained:
[1] = system: IL-23 secretion in DC cells; assay: Inhibition of Zymosan-stimulated IL-23 secretion in DC cells differentiated from human mononuclear cells; type: cell-based; conditions: Zymosan 200 μg/ml, 24 hours, ELISA
Description: Day 0: Mononuclear cells were isolated from fresh human peripheral blood and purified, and then resuspended in RPMI-1640 complete medium. When differentiation into DC cells took place, IL-4 at a concentration of 50 ng/ml and GM-CSF at 100 ng/ml were added to the medium, and the cells were cultured at a density of 1×10^6 cells/mL in a culture dish with a diameter of 100 mm for differentiation in an incubator at 37° C. with a carbon dioxide concentration of 5%. Day 3: Half the volume of RPMI complete medium was replaced with fresh RPMI complete medium, and the concentrations of IL-4 and GM-CSF were maintained at 50 ng/ml and 100 ng/ml respectively. Day 6: Non-adherent cells (DC cells) in the culture dish were collected and washed with PBS. The washed DC cells were resuspended with RPMI complete medium at a density of 1×10^6 cells/mL. Then, 1×10^5 DC cells were added to each well of the 96-well cell culture plate and pre-incubated for 1 hour with different dilutions of the compounds to be tested (or DMSO blank negative control at an equivalent concentration), followed by addition of 200 μg/ml of TLR2 agonist Zymosan to stimulate the DC cells for 24 hours. Day 7: After the DC cells were stimulated by Zymosan for 24 hours, the supernatant in each well of the 96-well plate was collected and detected by ELISA for the concentration of IL-23.

[2] = system: imiquimod-induced mouse model of psoriasis; assay: Imiquimod-induced psoriasis suppression assay; type: in vivo, Balb/c female mice; set-up: key to Erythema score, Mean / Psoriasis score, Mean / Thickness score, Mean: 0-5 scale, higher = more severe; key to Total clinical score, Mean: sum of 0-5 component scores; higher = more serious disease; conditions: for Ratio of spleen to body weight, Mean: Day 7, percentage of spleen to body weight; for Erythema score, Mean / Psoriasis score, Mean / Thickness score, Mean: Days 1-7; for Total clinical score, Mean: Days 1-7, endpoint of the experiment; for Effect on clinical score at the endpoint of the experiment / Effect on the ratio of spleen to body weight / Effect on the increase in skin thickness: Compound A 0.03%, versus model group; for Effect on clinical score at the endpoint of the experiment: each dose of Compound I (0.01%, 0.03%, 0.1%); for Effect on the ratio of spleen to body weight: three dose groups of Compound I; for Effect on the increase in skin thickness: Compound I low and high dose groups
From the text: An appropriate amount of Compound I was formulated into an ointment with the following components: 0.1% of Compound I, 9% of hexanediol, 78.8% of white petrolatum, 5% of paraffin, 7% of glyceryl mono- and di-stearate, and 0.1% of dihydroxybutyl toluene, which were mechanically stirred until an ointment was formed.
7-Week-old Balb/c female mice were used and the hair on their back in an area of 2 cm×3 cm was shaved the day before the experiment. On Days 1-7 of the experiment, the test compounds were applied on the skin, and after 6 hours, imiquimod (IMQ) ointment (Aldara (5%)) was continuously applied to the back skin of mice for 7 days, so as to establish a mouse model of psoriasis, while the control group was given the same dose of petrolatum ointment. On Days 3, 5 and 7, the severity of skin inflammation was assessed, including measurement of skin thickness, crusting and erythema, scored on a 5-point scale (0-5) respectively. The total score was used to assess the severity of skin inflammation. On Day 7 of the experiment, the spleen was collected and weighed, and the percentage of spleen to body weight was calculated to assess the immunosuppressive effect of the drug.
Normal control group, model control group, low, medium and high dose groups of Compound I (0.01%, 0.03% and 0.1%), and 0.03% reference Compound A group were set up in this experiment.
The total score of the degree of skin inflammation are the clinical score, the indicators of which are relatively subjective, and higher score indicated more serious disease. The degree of increase in skin thickness was an objective assessment indicator, and more increase in thickness indicated more serious disease. The ratio of spleen to body weight was an objective assessment indicator, and smaller ratio of spleen to body weight indicated stronger immunosuppressive effect of the drug.

PDE4B1 enzyme = biological target: T1, PDE4B1 enzyme (Homo sapiens, UniProt Q07343); assay: In vitro PDE4B enzyme activity detection assay (IMAP FP, FAM-cAMP substrate); type: biochemical; conditions: PDE4B1 0.04 nM, FAM-cAMP 0.1 μM, 25° C. 30 min
T1 construct: purchased BPS 60041
T1 sequence (Q07343 whole entry): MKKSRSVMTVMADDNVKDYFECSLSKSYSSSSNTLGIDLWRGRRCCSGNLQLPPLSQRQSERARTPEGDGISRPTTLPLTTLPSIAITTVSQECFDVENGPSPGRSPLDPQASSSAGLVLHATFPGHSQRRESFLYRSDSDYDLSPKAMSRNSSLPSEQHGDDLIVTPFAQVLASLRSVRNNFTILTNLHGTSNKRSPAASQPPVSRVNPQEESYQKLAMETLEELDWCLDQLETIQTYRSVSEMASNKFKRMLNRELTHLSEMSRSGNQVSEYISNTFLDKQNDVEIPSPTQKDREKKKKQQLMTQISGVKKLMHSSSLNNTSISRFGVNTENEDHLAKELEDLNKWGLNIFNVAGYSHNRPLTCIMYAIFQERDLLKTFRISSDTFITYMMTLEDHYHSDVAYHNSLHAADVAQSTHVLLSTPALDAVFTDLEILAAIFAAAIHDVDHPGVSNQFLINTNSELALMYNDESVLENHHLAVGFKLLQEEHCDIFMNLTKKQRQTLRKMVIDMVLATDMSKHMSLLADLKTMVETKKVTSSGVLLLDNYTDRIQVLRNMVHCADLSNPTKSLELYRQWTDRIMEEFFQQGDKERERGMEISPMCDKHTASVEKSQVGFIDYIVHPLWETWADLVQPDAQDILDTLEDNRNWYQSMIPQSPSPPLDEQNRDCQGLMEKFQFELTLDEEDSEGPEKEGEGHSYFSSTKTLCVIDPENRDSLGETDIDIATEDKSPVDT
Description: A stock solution of the compound at a concentration of 10 mM was prepared in a test tube with 90% DMSO (10% water), and it was used to prepare a series of dilutions with a dilution factor of 1:5 and final concentrations starting from 100 μM and lowering to 0.05 nM.
0.2 μl of the solution of the compound was transferred into a 384-well reaction plate, and 0.2 μl of 100% DMSO was transferred into both the negative and positive controls. Then, 10 μl of 2×PDE4B1 enzyme solution (a final concentration of 0.04 nM) was added to the wells, and 10 μl of 1× reaction buffer (50 mM HEPES, pH 7.5, 0.0015% Brij-35) instead of the enzyme solution was added to the wells of the control without enzyme activity. The plate was centrifuged at 1,000 rpm for 1 min and incubated at room temperature for 15 min. Next, 10 μl of 2×FAM-CAMP substrate solution (a substrate final concentration of 0.1 μM) was added to each well of the 384-well reaction plate. The plate was centrifuged at 1,000 rpm for 1 min, and the reaction was carried out at 25° C. for 30 min. […]
After completion of the incubation, the RLU data were read and the inhibition rate was calculated. The IC50 value was calculated from the concentration-inhibition fitted curve, wherein the maximum value refers to the reading of the DMSO control and the minimum value refers to the reading of the control without enzyme activity.

TNF-α release in PBMCs = assay: Inhibition of LPS-induced TNF-α release in peripheral blood mononuclear cells; type: cell-based; conditions: PBMC; LPS 0.1 ng/ml, 24 hours, ELISA
Description: Frozen PBMCs were thawed and detected by Trypan blue staining for cell viability and number. The thawed PBMCs were washed with RPMI1640 complete medium (RPMI1640+10% FBS+1% PS) and centrifuged, and the supernatant was discarded. The PBMCs were resuspended with RPMI1640 complete medium and the cell density was adjusted to 2×10^6 cells/mL. 2×10^5 PBMC cells were plated in a 96-well cell culture plate, and the compounds to be tested were added at different concentrations, in a 1:5 serial dilution of 9 concentrations starting from a maximum compound concentration of 100 μM, each in duplicate wells. LPS was added at a final concentration of 0.1 ng/ml, making a total volume of 200 μL. For the negative and positive controls, only LPS and DMSO were added to the negative control wells, while 1 μg/mL of dexamethasone as a positive control was added to the positive control wells in addition to cells and LPS. The cells were incubated for 24 hours in an incubator at 37° C. After completion of the incubation, 100 μL of cell culture supernatant was collected and detected by ELISA for the TNF-α level. 100 μL of CellTiter-Glo was added to the remaining cells in each well to detect the level of cell viability. The IC50 values of inhibition on TNF-α release by the compounds were calculated.

[3] = Dynamic vapor sorption (DVS) hygroscopicity; type: physicochemical
From the text: The ‘9103 Guidelines for Hygroscopicity of Drugs’ in Volume IV of the 2015 edition of Chinese Pharmacopoeia describes the characteristics of hygroscopicity and defines the weight gain by hygroscopicity as follows, • deliquescent: absorbing sufficient moisture to form a liquid; • extremely hygroscopic: the weight gain by hygroscopicity being no less than 15%; • hygroscopic: the weight gain by hygroscopicity being less than 15% but not less than 2%; • slightly hygroscopic: the weight gain by hygroscopicity being less than 2% but not less than 0.2%; • no or almost no hygroscopic: the weight gain by hygroscopicity being less than 0.2%.
The detection is performed using SMS Intrinsic PLUS at 25° C., with humidity change of 50%-0%-90% with a step size of 10%, in which the criteria for judging is that the mass change dM/dT for each gradient is less than 0.0002%, TMAX is 360 min, and two cycles are performed.

[4] = Stability test I of crystal form A (temperature and humidity; HPLC and XRPD); type: physicochemical
Description: (§1) 5. High performance liquid chromatography (HPLC) described in the stability test of the crystal form A of the present disclosure is determined on Agilent 1260 Infinity II under the following HPLC conditions: chromatographic column of Agilen XDB C18 5 μm 4.6×250 mm; mobile phase of A—0.05% TFA (in water), and B—ACN; flow rate of 1.0 ml/min; wavelength of 220 nm.
It is determined whether temperature and humidity have an influence on the stability of crystal form A of the compound of formula I.
The crystal form A was placed in a stabilizing chamber for accelerated stability tests under a series of temperature and humidity combinations. After being placed for different days under various temperature and humidity conditions, the samples were taken out and compared with the initial crystal form A. The content of the compound of formula I was determined by high performance liquid chromatography, and XRPD detection was performed.

[5] = Stability test II of crystal form A (light; HPLC and XRPD); type: physicochemical
Description: as §1
It is determined whether light has an influence on the stability of crystal form A of the compound of formula I.
The crystal form A was placed in a light stabilizing chamber, and taken out after reaching ICH strength. The resulting solid was compared with the initial crystal form A. The content of the compound of formula I was determined by high performance liquid chromatography, and XRPD detection was performed.

In the case of `CCCOc1cc(-c2cncc([C@@H]3COB(O)C3)c2)ccc1OC` [Compound A, reference compound], the pIC50 [1] was 9.21, the “Ratio of spleen to body weight, Mean” value ([2]; 0.03% applied on skin) was 0.96 and the “Erythema score, Mean” value ([2]; 0.03% applied on skin) was 3.33. The “Psoriasis score, Mean” value ([2]; 0.03% applied on skin) was 2.5, the “Thickness score, Mean” value ([2]; 0.03% applied on skin) was 2.5 and the “Total clinical score, Mean” value ([2]; 0.03% applied on skin) was 8.33. For the same compound, the “Effect on clinical score at the endpoint of the experiment” value [2] was “significantly reduce”, the “Effect on the ratio of spleen to body weight” value [2] was “no significant effect” and the “Effect on the increase in skin thickness” value [2] was “no significant effect”.

For `COc1ccc(-c2cncc([C@@H]3COB(O)C3)n2)c2c1OC(C)(C)CC2` [Compound I, (R)-4-(6-(8-methoxy-2,2-dimethylbenzodihydropyran-5-yl)pyrazin-2-yl)-1,2-oxaborocyclopentan-2-ol], the pIC50 (PDE4B1 enzyme) was 9.77, the pIC50 (TNF-α release in PBMCs) was 10.26 and the pIC50 [1] was 10.74. The “Ratio of spleen to body weight, Mean” value ([2]; 0.01% applied on skin) was 0.64, the “Erythema score, Mean” value ([2]; 0.01% applied on skin) was 4 and the “Psoriasis score, Mean” value ([2]; 0.01% applied on skin) was 3.13. For the same compound, the “Thickness score, Mean” value ([2]; 0.01% applied on skin) was 2.38, the “Total clinical score, Mean” value ([2]; 0.01% applied on skin) was 9.5 and the “Inhibitory effect on the increase in skin thickness compared with Compound A at the same dose” value ([2]; 0.03%) was “significantly higher”. The “Ratio of spleen to body weight, Mean” value ([2]; 0.03% applied on skin) was 0.43, the “Erythema score, Mean” value ([2]; 0.03% applied on skin) was 3.86 and the “Psoriasis score, Mean” value ([2]; 0.03% applied on skin) was 2.14. For the same compound, the “Thickness score, Mean” value ([2]; 0.03% applied on skin) was 1.57, the “Total clinical score, Mean” value ([2]; 0.03% applied on skin) was 7.57 and the “Ratio of spleen to body weight, Mean” value ([2]; 0.1% applied on skin) was 0.31. For the same compound, the “Erythema score, Mean” value ([2]; 0.1% applied on skin) was 3.63, the “Psoriasis score, Mean” value ([2]; 0.1% applied on skin) was 1.38 and the “Thickness score, Mean” value ([2]; 0.1% applied on skin) was 1.75. For the same compound, the “Total clinical score, Mean” value ([2]; 0.1% applied on skin) was 6.75, the “Effect on clinical score at the endpoint of the experiment” value [2] was “significantly reduce” and the “Effect on the ratio of spleen to body weight” value [2] was “significantly reduce”. The “Effect on the increase in skin thickness” value [2] was “significantly inhibit”.

Work on `O=C(Nc1c(Cl)cncc1Cl)c1ccc(OC(F)F)c(OCC2CC2)c1` [Roflumilast] yielded a pIC50 [1] of 7.89.

In the case of `COc1ccc(-c2cncc([C@@H]3COB(O)C3)n2)c2c1OC(C)(C)CC2` [crystal form A, (R)-4-(6-(8-methoxy-2,2-dimethylbenzodihydropyran-5-yl)pyrazin-2-yl)-1,2-oxaborocyclopentan-2-ol], the “Weight gain by hygroscopicity” value ([3]; accelerated experimental conditions, 70% RH) was “approximately 0.15%”, the “Crystal form before and after DVS detection (XRPD)” value ([3]; after DVS, humidity 0% to 90% RH) was “does not change” and the “Weight gain by hygroscopicity” value ([3]; extreme conditions, 90% RH) was “approximately 0.70%”. The “Weight gain by hygroscopicity” value ([3]; normal storage conditions, 25° C., 60% RH) was “approximately 0.08%”, the Purity ([4]; 55 °C, 30% humidity, 18 days) was 98.01% and the Purity ([4]; 55 °C, 79% humidity, 20 days) was 97.40%. It also gave a Purity ([4]; 65 °C, 11% humidity, 20 days) of 97.74%, a Purity ([4]; 65 °C, 50% humidity, 20 days) of 96.16% and a Purity ([4]; 65 °C, 75% humidity, 20 days) of 95.86%. It also gave a Purity ([4]; 70 °C, 11% humidity, 20 days) of 97.33%, a Purity ([4]; 75 °C, 0% humidity, 20 days) of 97.41% and a Purity ([4]; 75 °C, 50% humidity, 7 days) of 96.57%. The “Overall stability under temperature and humidity combinations” value ([4]; accelerated stability tests, Table 4 conditions) was “remains unchanged and exhibits good stability”, the Purity ([4]; initial, 0 days) was 97.99% and the Purity ([5]; At 0) was 97.99%. For the same compound, the Purity ([5]; Light-0.5 ICH) was 97.76% and the Purity ([5]; Light-1.0 ICH) was 97.15%.
